The values below come from ChEMBL document CHEMBL1201862, “PubChem BioAssay data set” (2004).

Test [1] can be described thus: A cytotoxicity screen of small molecule inhibitors of the PhoP region in Salmonella typhi identified in the primary screen. [Related pubchem assays: 1850, 1864, 1985 ]. Type of test: functional.
In test [2] the target is Peroxisome proliferator-activated receptor gamma/Nuclear receptor coactivator 3 (Homo sapiens, UniProt P37231). Format: functional.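 Further: agonist potency for raising coactivator recruitment to the receptor.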
For test [3], the target named is Peroxisome proliferator-activated receptor gamma/Nuclear receptor coactivator 2 (Homo sapiens, UniProt P37231). Type of test: functional.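 Further: agonist potency for raising coactivator recruitment to the receptor.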
The target in test [4] is Peroxisome proliferator-activated receptor gamma/Nuclear receptor coactivator 1 (Homo sapiens, UniProt P37231). Type of test: functional.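 Further: agonist potency as compounds enhance coactivator SRC-1 recruitment to PPARgamma.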
A short description of test [5]: reduction of Shn3 3'UTR-driven luciferase in osteoblasts – cell-based, Clone20 osteoblasts, firefly luciferase, cherry-picked, dose response (AID 624132).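 Further: firefly luciferase luminescence from reporter carrying the Shn3 3'UTR in osteoblasts.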 Format: functional.
Test [6] is described as follows: loss of viability in HepG2 cells – cell-based, CellTiter-Glo, cherry-picked, cytotoxicity control for Shn3 inhibitor project, dose response (AID 624134). Format: functional. (In general: In ATP-based viability assays light output follows the ATP content of the culture.)
A short description of test [7]: non-specific 3'UTR reporter inhibition in Clone20-Shn3RL – cell-based, Renilla luciferase, cherry-picked, counter-screen for Shn3 inhibitor project, dose response (AID 624133). Format: functional. Background: Counterscreens check selectivity or assay interference.
For a further test, the target named is T1, Cytochrome P450 1A2 (Homo sapiens, UniProt P05177).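 Further: PubChem cytochrome P450 panel assay, CYP1A2 panel member.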
T1 sequence (P05177 whole entry): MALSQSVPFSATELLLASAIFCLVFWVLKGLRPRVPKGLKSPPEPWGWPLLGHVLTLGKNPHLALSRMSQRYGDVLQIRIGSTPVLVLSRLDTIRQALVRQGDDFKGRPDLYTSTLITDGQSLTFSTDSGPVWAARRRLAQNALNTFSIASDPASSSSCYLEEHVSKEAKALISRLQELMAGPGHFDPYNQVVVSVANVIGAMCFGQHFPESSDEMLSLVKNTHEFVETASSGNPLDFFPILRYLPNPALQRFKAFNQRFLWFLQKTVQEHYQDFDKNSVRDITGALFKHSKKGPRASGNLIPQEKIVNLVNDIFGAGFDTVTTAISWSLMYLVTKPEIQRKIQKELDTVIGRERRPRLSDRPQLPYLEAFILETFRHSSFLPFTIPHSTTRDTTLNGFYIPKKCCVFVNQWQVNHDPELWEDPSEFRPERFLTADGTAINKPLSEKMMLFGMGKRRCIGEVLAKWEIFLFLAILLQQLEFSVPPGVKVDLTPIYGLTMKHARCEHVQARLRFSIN

A further test deals with Cytochrome P450 3A4 (Homo sapiens, UniProt P08684).
The target of another test is Cytochrome P450 2C19 (Homo sapiens, UniProt P33261). Briefly: Cytochrome panel assay with activity outcomes. Panel member name: p450-cyp2c19 Compounds with AC50 equal or less than 10 uM are considered active. Format: functional. Conditions: read-out: AC50.
The target of test [8] is T2, Polyadenylate-binding protein 1 (Homo sapiens, UniProt P11940). Briefly: MLLE domain peptide-binding blockers, IC50 – biochemical, fluorescence polarization, FITC-PAM2 peptide, dose response (AID 602259). Format: functional. Conditions: read-out: IC50_Mean.
The target of test [9] is T2, Polyadenylate-binding protein 1. Briefly: MLLE binding blockers, Cy5 peptide tracer – biochemical, fluorescence polarization, Cy5-PAM2 peptide, secondary, miRNA deadenylation inhibitor project, dose response (AID 602260). As to conditions: read-out: IC50_Mean. Type of test: functional. (In general: In fluorescence polarisation assays a small probe gives low polarisation when free and higher when bound to something large.)

Test [10] has as its target T3, Heat shock factor protein 1 (Mus musculus, UniProt P38532).
T3 sequence (P38532 whole entry): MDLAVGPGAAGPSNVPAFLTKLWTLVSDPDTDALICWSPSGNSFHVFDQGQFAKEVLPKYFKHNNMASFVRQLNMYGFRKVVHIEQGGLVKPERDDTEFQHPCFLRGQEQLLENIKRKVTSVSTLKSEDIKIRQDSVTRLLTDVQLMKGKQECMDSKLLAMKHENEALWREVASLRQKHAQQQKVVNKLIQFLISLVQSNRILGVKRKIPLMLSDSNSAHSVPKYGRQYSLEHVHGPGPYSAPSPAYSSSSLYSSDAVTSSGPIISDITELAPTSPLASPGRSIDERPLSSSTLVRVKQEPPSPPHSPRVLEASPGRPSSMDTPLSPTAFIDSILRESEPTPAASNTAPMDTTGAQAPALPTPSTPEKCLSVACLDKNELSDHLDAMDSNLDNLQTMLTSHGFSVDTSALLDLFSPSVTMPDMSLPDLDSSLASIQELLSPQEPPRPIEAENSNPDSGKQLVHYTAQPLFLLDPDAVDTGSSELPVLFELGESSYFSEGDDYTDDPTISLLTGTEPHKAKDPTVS
Briefly: decrease of HSF1-responsive luciferase luminescence – cell-based, NIH3T3, dose retest, confirmation (AID 2382).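 Further: NIH3T3 fibroblasts with HSF1-driven luciferase reporter stressed by proteasome inhibitor MG132; luminescence from HSF1-driven luciferase expression after 8 hours of MG132 stress.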 Type of test: functional.

The target in test [11] is T4, Zinc finger protein mex-5 (Caenorhabditis elegans, UniProt Q9XUB2).
T4 sequence (Q9XUB2 whole entry): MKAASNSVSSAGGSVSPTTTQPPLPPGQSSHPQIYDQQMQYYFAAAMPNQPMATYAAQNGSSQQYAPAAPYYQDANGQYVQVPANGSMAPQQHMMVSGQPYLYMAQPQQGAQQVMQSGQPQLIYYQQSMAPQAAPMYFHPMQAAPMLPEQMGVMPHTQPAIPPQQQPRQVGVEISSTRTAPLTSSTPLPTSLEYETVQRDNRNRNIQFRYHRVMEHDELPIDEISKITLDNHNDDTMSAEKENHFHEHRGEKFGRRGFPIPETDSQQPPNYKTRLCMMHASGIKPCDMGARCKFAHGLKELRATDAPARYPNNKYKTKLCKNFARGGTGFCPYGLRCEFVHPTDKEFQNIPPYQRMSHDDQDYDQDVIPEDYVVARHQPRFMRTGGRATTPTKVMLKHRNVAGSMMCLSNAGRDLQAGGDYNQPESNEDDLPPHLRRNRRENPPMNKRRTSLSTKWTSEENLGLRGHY
Briefly: potency of MEX-5 RNA-binding blockers – biochemical, C. elegans, fluorescence polarization, dose response (AID 1960).

In test [12] the target is T5, RNA-binding protein pos-1 (Caenorhabditis elegans, UniProt G5EF15).
T5 sequence (G5EF15 whole entry): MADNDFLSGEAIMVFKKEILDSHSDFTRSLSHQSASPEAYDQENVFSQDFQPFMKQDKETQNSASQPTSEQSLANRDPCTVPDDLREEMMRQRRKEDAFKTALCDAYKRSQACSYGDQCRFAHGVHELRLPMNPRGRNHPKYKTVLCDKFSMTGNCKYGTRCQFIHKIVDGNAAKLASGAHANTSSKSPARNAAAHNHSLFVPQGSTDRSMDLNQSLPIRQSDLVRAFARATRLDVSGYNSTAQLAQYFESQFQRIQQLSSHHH
Nature of the test: disruptors of C. elegans POS-1 RNA interaction – biochemical, fluorescence polarization, dose response (AID 1964).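 Further: purified POS-1 fused to maltose binding protein made in E. coli; potency of compounds blocking POS-1 binding to fluorescent RNA.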

The target in test [13] is T6, Endoribonuclease toxin MazF (Escherichia coli K-12, UniProt P0AE70).
T6 sequence (P0AE70 whole entry): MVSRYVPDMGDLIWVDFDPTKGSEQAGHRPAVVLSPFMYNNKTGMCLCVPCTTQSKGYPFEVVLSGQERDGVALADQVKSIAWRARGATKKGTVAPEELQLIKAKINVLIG
Briefly: activation of MazEF endoribonuclease cleavage – biochemical, fluorescence, single-stranded RNA substrate, uHTS hits, dose response (AID 588481). Format: functional.

The target of test [14] is T6, Endoribonuclease toxin MazF. Briefly: substrate-only fluorescence increase artefacts – biochemical, single-stranded RNase substrate, counter-screen for MazEF activator project, dose response (AID 588502). Type of test: functional.
Another test relates to INS1. Briefly: INS-1E survival protection against cytokine death – cell-based, luminescence, retest, dose response (AID 449756).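 Further: cell death triggered by IL-1 beta plus TNF-alpha plus IFN-gamma mixture; protective hits raise ATP signal compared with cytokine alone wells.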 Format: functional. As to conditions: Rattus norvegicus.
Test [15] in a line: microbe, parasite or virus in culture. Format: functional. As to conditions: Mycobacterium tuberculosis.
Test [16] can be described thus: viability of PTEN-deleted HCT116 cells – cell-based, HCT116 PTEN knockout, dose response (AID 1047).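 Further: HCT116 colon tumor cells with PTEN knocked out; cells exposed to compound for 60 hours before readout; potency for loss of cell viability measured by luminescence.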 Type of test: functional.
Test [17] in a line: viability of HCT116 lacking mutant beta-catenin – cell-based, human colon tumor, dose response (AID 1045).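 Further: HCT116 colon tumor cells with beta catenin knocked out; cells exposed to compound for 60 hours.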 Type of test: functional.
Test [18] in a line: Luminescence Cell-Based Dose Retest to Confirm Inhibitors of Cancer Stem Cells. [Related pubchem assays (depositor defined):AID2717, AID2721]. Conditions: Homo sapiens. Type of test: functional.
Test [19] concerns the target Induced myeloid leukemia cell differentiation protein Mcl-1 (Homo sapiens, UniProt Q07820). Type of test: functional.
Test [20] concerns the target Eukaryotic translation initiation factor 4E (Mus musculus, UniProt P63073). Nature of the test: blockers of eIF4G binding by eIF4E – biochemical, TR-FRET, dose response (AID 855).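 Further: potency for disrupting eIF4E binding to eIF4GI seen as loss of FRET.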 Type of test: functional.

Calls of active or inactive are those of the source.

Peroxisome proliferator-activated receptor gamma/Nuclear receptor coactivator 1, sequence (P37231 whole entry): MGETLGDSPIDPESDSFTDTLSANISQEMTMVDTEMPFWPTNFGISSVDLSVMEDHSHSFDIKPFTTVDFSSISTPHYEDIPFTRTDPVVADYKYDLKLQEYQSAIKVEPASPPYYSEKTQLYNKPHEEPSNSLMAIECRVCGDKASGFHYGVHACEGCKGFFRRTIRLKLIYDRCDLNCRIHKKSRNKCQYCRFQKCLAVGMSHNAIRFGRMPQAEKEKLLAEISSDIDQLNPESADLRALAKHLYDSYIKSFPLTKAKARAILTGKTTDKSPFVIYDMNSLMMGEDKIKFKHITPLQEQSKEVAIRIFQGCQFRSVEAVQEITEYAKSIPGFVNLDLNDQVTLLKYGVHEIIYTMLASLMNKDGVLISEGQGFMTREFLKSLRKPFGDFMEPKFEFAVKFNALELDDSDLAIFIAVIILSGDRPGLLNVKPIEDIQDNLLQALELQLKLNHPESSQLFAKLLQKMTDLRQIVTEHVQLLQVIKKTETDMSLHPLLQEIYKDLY
Peroxisome proliferator-activated receptor gamma/Nuclear receptor coactivator 1, sequence (Q15788 whole entry, further chain): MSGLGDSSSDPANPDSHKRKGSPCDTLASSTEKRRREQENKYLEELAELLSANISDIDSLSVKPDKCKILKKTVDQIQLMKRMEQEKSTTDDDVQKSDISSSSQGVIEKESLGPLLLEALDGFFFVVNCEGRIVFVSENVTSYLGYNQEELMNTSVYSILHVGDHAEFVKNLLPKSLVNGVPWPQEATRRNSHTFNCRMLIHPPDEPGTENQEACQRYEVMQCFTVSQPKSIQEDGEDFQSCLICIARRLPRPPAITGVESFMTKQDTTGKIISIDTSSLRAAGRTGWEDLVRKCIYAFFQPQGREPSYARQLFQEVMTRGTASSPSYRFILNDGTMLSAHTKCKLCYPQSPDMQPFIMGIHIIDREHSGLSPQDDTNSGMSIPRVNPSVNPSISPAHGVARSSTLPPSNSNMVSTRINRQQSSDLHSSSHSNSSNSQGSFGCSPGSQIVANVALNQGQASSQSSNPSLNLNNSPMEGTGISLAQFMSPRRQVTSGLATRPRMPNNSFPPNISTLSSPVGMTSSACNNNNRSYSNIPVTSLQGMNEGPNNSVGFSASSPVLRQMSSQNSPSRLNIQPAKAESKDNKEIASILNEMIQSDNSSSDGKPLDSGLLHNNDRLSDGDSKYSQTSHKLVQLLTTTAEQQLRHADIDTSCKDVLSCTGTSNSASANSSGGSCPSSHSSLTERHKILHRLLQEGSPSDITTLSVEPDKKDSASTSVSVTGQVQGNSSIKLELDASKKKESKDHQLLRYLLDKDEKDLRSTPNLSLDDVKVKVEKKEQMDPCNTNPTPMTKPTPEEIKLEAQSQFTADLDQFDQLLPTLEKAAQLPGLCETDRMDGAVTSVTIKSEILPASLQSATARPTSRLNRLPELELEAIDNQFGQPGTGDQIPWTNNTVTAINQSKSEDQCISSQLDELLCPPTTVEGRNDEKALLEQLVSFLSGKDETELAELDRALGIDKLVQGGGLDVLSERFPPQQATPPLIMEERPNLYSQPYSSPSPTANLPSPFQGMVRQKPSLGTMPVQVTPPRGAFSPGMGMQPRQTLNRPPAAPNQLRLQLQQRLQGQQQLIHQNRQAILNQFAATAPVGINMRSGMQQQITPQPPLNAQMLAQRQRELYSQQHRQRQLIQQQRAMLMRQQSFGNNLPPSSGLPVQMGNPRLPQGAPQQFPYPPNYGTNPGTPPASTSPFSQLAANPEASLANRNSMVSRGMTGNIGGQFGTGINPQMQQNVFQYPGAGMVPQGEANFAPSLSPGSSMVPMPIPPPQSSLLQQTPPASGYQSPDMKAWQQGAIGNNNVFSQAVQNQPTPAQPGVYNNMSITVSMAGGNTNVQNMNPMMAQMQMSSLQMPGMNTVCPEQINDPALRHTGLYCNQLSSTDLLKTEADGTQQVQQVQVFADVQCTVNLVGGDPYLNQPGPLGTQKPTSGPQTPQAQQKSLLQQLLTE
Peroxisome proliferator-activated receptor gamma/Nuclear receptor coactivator 2, sequence (P37231 whole entry): as the sequence (P37231 whole entry) above
Peroxisome proliferator-activated receptor gamma/Nuclear receptor coactivator 2, sequence (Q15596 whole entry, further chain): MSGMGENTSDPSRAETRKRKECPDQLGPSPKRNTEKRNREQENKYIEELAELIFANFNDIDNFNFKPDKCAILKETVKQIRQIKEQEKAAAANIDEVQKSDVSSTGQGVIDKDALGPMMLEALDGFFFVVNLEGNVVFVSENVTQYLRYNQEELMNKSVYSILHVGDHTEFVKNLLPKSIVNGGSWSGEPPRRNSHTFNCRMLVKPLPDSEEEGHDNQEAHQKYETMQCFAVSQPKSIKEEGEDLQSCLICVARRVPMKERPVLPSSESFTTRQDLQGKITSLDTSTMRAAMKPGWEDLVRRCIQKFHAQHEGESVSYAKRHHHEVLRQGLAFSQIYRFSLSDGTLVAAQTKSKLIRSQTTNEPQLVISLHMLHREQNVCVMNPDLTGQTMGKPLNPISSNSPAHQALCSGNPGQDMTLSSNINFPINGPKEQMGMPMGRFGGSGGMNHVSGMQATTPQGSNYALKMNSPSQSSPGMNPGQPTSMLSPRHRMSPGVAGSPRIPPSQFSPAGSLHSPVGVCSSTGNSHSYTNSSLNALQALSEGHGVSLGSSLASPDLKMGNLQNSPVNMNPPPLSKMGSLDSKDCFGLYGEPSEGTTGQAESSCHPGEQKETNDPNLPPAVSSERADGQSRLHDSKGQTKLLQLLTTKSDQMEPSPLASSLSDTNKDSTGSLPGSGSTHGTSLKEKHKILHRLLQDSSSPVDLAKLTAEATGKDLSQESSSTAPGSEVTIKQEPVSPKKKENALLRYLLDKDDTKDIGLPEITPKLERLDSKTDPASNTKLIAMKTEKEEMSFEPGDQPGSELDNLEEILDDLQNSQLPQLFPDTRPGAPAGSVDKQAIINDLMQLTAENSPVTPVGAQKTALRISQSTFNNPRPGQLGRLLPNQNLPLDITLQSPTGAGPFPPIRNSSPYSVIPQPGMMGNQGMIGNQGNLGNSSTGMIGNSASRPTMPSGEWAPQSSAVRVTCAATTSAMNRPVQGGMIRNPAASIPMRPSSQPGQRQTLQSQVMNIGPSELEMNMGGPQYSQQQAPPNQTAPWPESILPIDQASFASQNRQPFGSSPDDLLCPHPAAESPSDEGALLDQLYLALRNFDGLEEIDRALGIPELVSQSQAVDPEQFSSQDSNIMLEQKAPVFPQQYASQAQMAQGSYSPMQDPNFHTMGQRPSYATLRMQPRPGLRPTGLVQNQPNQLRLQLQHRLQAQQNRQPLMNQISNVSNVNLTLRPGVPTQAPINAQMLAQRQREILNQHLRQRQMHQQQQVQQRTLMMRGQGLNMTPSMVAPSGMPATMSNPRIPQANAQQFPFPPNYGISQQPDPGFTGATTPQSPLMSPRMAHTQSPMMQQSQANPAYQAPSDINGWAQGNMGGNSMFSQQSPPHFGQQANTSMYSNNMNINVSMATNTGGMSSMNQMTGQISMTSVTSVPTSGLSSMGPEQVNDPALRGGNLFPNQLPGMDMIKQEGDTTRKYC
Eukaryotic translation initiation factor 4E, sequence (P63073 whole entry): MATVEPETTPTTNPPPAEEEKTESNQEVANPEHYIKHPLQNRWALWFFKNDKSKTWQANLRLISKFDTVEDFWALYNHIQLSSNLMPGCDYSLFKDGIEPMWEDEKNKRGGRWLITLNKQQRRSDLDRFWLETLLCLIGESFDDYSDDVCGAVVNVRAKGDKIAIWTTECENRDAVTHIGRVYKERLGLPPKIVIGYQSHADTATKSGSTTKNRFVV
T2 sequence (P11940 whole entry, the tested form may be a part): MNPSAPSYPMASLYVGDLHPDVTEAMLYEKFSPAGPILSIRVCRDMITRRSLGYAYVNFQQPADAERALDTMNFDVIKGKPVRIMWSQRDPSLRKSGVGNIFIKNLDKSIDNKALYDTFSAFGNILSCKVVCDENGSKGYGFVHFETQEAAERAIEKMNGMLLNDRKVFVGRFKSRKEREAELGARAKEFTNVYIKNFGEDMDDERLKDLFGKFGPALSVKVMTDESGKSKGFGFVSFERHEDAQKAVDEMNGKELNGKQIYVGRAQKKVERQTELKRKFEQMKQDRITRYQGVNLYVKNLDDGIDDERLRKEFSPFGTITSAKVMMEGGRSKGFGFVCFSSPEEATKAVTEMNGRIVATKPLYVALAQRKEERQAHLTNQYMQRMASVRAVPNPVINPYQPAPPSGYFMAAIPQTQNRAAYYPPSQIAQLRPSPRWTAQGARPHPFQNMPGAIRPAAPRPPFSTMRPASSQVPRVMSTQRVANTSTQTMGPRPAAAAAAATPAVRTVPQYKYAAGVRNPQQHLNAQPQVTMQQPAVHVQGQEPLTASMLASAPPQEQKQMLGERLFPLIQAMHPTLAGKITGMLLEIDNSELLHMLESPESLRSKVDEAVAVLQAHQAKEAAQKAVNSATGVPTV

The term EC50 denotes the concentration that produces a half-maximal response. On to `Cc1[nH]c2ccc(C(=O)Nc3ccncc3)cc2c1C`, for which the EC50 in [1] was > 50 µM (active).

Regarding `Cn1c(=O)c2c(ncn2CCNC2=NCCCCC2)n(C)c1=O`, the concentration for a half-maximal effect (EC50) in [2], in test [3] and in [4] was > 79.4 µM (not active) throughout.

Usually AC50 stands for the midpoint of the concentration-response curve, whichever way the signal moves. For `Cc1cccc(NC(=O)Cn2cc(C(=O)C3CC3)c3ccccc32)c1C`, the figures for the AC50 in [5], in test [6] and in [7] were 2.39 µM (active), 66 µM (active) and 3.05 µM (active), respectively.

In the case of `O=C(COc1ccc2ccccc2c1)NNC(=O)Cc1ccccc1`, the EC50 in [2] was 6.57 µM (active); in [3], 5.17 µM (active); in test [4], 6.07 µM (active).

In the case of `Cc1ccc(CSc2nc3c(cc2C#N)CCC3)cc1`, the EC50 in test [2] is 47.6 µM (not active); in test [3], 28.5 µM (not active); in test [4] it was 42.7 µM (not active).

As to `CC(C)C(=O)N1C2CCC1CC(O)(c1ccc(F)cc1)C2` (stereo not given), the concentration for a half-maximal effect (EC50) in test [2], in [3] and in [4] was > 79.4 µM (not active) each time. The AC50 is 17.8 µM (inconclusive) at Cytochrome P450 1A2, 22.4 µM (inconclusive) at Cytochrome P450 3A4 and 20 µM (inconclusive) on Cytochrome P450 2C19.

For `O=C1c2ccccc2NC(c2cccc([N+](=O)[O-])c2)N1CCc1ccccc1` (stereo not given), the EC50 in [1] is > 50 µM (active).

In the case of `O=C(Nc1ccc(F)cc1)C1CCC(CNc2c(N3CCCCC3)c(=O)c2=O)CC1` (stereo not given), the 50% effective concentration (EC50) in test [1] is > 50 µM (active).

For `COC(=O)c1cc(NC(S)=Nc2cc(Cl)cc(Cl)c2)cc(C(=O)OC)c1`, the IC50 in test [8] and in [9] was > 66 µM (inactive) each time.

As to `Cc1cc(NC(=O)c2ccc3[nH]c(C)c(C)c3c2)ccn1`, in test [1], the EC50 was > 50 µM (active).

Consider `Cc1nc2scc(C)n2c(=O)c1S(=O)(=O)N1CCN(c2cccc(C(F)(F)F)c2)CC1`, for which the EC50 was > 195 µM (not active) in [10] and > 50 µM (active) in test [1].

Consider `CCc1nc2ccc(C(=O)Nc3nnc(C)s3)cc2nc1CC`, for which the 50% effective concentration (EC50) in test [2], in test [3] and in [4] was > 79.4 µM (not active) throughout.

Regarding `O=C(Nc1ccc(S(=O)(=O)N2CCCC2)cc1)c1cccnc1`, the EC50 in [1] is > 50 µM (active).

For the molecule `N#CC(C(=O)NCc1ccccc1)c1nc2ccccc2nc1N1CCCC1` (stereo not given), the half-maximal effective concentration (EC50) in test [11] is > 300 µM (inconclusive); in test [12], > 300 µM (inconclusive); in test [13], 4.64 µM (active); in [14] it was > 99 µM (inactive).

Turning to `CCCN(CC(=O)Nc1ccccc1C)C(=O)COC(=O)CSc1ccc([N+](=O)[O-])cc1`, the IC50 in [8] and in test [9] was > 66 µM (inactive) in each case.

On to `Cn1cccc1-c1nc2cc(NC(=O)c3ccccc3)ccc2[nH]1`, for which the EC50 in [2], in test [3] and in test [4] was > 79.4 µM (not active) each time.

Turning to `CCCCCc1nc2c(c(=O)c3ccccc3n2C)c(=O)n1C1CCCCCC1`, the AC50 in test [5] is 8.21 µM (active); in the test with INS1, 7.76 µM (active); in test [6] it was 42.3 µM (active); in test [7] it was 5.56 µM (active); in [18] it was 3.56 µM (active). In addition, in test [15], the CC50 is 10.4 µM (active). Further, the EC50 in [16] is 7.59 µM (active); in [17], 6.38 µM (active).

Turning to `O=C(CN1C(=O)/C(=C2\SC(=S)N(C3CCS(=O)(=O)C3)C2=O)c2ccccc21)Nc1ccc(F)cc1` (stereo not given), the IC50 in test [19] is 3.55 µM (active).

In the case of `Cc1ccc(C23CC4CC(CC(CN)(C4)C2)C3)cc1`, the IC50 in test [20] was 50 µM (inactive).

Take `c1cncc(CNC2CCCC2)c1`: the EC50 in [2], in test [3] and in [4] was > 79.4 µM (not active) throughout.

As for `C=CCN1C(=O)/C(=C2/Sc3ccccc3N2CC)SC1=S`, the half-maximal effective concentration (EC50) in test [11] was 9.69 µM (active); in test [12] it was 16.1 µM (active); in test [13] it was > 99 µM (inactive); in [14], 56.1 µM (inactive).

As for `CCCCOC(=O)Nc1nnc(SCCOc2ccc(C)cc2)s1`, the IC50 in test [20] is > 64 µM (inactive).

Regarding `Cc1ccc(NC(=O)c2ccccc2)s1`, the EC50 in test [1] was > 50 µM (active).

With `Cc1cc(C(F)F)n2nc(C(=O)Nc3sc4c(c3C(N)=O)CCC4)nc2n1`, the IC50 in [19] was 40 µM (active).

For the molecule `CC12CC3(C)CC(C)(C1)CC(C(=O)NC(=S)N1CCCC1)(C2)C3`, the IC50 in test [20] was 50 µM (inactive).
